Assay results as given in PubChem BioAssay AID248 (DTP/NCI, 2004).
Where “and” joins values, the source holds several entries; their conditions need not be identical. Identical values can stand only once. Toxic doses and inconclusive results are not listed.

Tested on: L1210 leukemia ip in BDF1 mice, survival T/C
Test: NCI In Vivo Anticancer Drug Screen. Data for tumor model L1210 Leukemia (intraperitoneal) in B6D2F1 (BDF1) mice
Details: endpoint: mean survival time, higher = longer survival
Method in brief: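 Transplanted-tumor mice were given test agent; controls received vehicle only. Survival readings from the two groups were divided (treated over control).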

[1] = dose: 100.0 mg/kg/injection, schedule: Q04DX003 (ip), vehicle: saline
[2] = dose: 200.0 mg/kg/injection, schedule: Q04DX003 (ip), vehicle: saline
[3] = dose: 100.0 mg/kg/injection, schedule: Q04DX003 (ip), vehicle: Klucel (hydroxypropylcellulose) (HPC)
[4] = dose: 200.0 mg/kg/injection, schedule: Q04DX003 (ip), vehicle: Klucel (hydroxypropylcellulose) (HPC)
[5] = dose: 400.0 mg/kg/injection, schedule: Q04DX003 (ip), vehicle: Klucel (hydroxypropylcellulose) (HPC)
[6] = dose: 100.0 mg/kg/injection, schedule: Q01DX001 (ip), vehicle: Klucel (hydroxypropylcellulose) (HPC)
[7] = dose: 200.0 mg/kg/injection, schedule: Q01DX001 (ip), vehicle: Klucel (hydroxypropylcellulose) (HPC)
[8] = dose: 400.0 mg/kg/injection, schedule: Q01DX001 (ip), vehicle: Klucel (hydroxypropylcellulose) (HPC)
[9] = dose: 100.0 mg/kg/injection, schedule: Q01DX009 (ip), vehicle: Klucel (hydroxypropylcellulose) (HPC)
[10] = dose: 200.0 mg/kg/injection, schedule: Q01DX009 (ip), vehicle: Klucel (hydroxypropylcellulose) (HPC)
[11] = dose: 400.0 mg/kg/injection, schedule: Q01DX009 (ip), vehicle: Klucel (hydroxypropylcellulose) (HPC)
[12] = dose: 50.0 mg/kg/injection, schedule: Q01DX001 (ip), vehicle: carboxymethylcellulose (CMC)
[13] = dose: 100.0 mg/kg/injection, schedule: Q01DX001 (ip), vehicle: carboxymethylcellulose (CMC)
[14] = dose: 100.0 mg/kg/injection, schedule: Q04DX003 (ip), vehicle: saline with Tween-80
[15] = dose: 200.0 mg/kg/injection, schedule: Q04DX003 (ip), vehicle: saline with Tween-80
[16] = dose: 400.0 mg/kg/injection, schedule: Q04DX003 (ip), vehicle: saline with Tween-80
[17] = dose: 50.0 mg/kg/injection, schedule: Q01DX009 (ip), vehicle: saline with Tween-80
[18] = dose: 100.0 mg/kg/injection, schedule: Q01DX009 (ip), vehicle: saline with Tween-80
[19] = dose: 200.0 mg/kg/injection, schedule: Q01DX009 (ip), vehicle: saline with Tween-80
[20] = dose: 400.0 mg/kg/injection, schedule: Q01DX009 (ip), vehicle: saline with Tween-80
[21] = dose: 200.0 mg/kg/injection, schedule: Q01DX001 (ip), vehicle: carboxymethylcellulose (CMC)
[22] = dose: 400.0 mg/kg/injection, schedule: Q01DX001 (ip), vehicle: carboxymethylcellulose (CMC)

CC(C)=CCC/C(C)=C/CN1C(=O)CCCC1=O
T/C (dose: 100.0 mg/kg/injection, schedule: Q01DX001 (ip), vehicle: saline with Tween-80): 104 % of control | T/C (dose: 150.0 mg/kg/injection, schedule: Q04DX003 (ip), vehicle: saline with Tween-80): 94 % of control | T/C (dose: 200.0 mg/kg/injection, schedule: Q01DX001 (ip), vehicle: saline with Tween-80): 97 % of control | T/C (dose: 300.0 mg/kg/injection, schedule: Q04DX003 (ip), vehicle: saline with Tween-80): 94 % of control | T/C (dose: 400.0 mg/kg/injection, schedule: Q01DX001 (ip), vehicle: saline with Tween-80): 93 % of control | T/C (dose: 600.0 mg/kg/injection, schedule: Q04DX003 (ip), vehicle: saline with Tween-80): 90 % of control

COCCN1CCC(C)(CO)C1 (centres undefined)
T/C [1]: 87 % of control | T/C [2]: 93 % of control | T/C (dose: 400.0 mg/kg/injection, schedule: Q04DX003 (ip), vehicle: saline): 92 % of control

CS(=O)(=O)OCC1CCC(COS(C)(=O)=O)CC1 (centres undefined)
T/C [3]: 103 % of control | T/C [4]: 100 % of control | T/C [5]: 102 % of control

O=C1CCc2nc(=O)c3c4ccccc4ccc3n21
T/C [6]: 94 % of control | T/C [7]: 100 % of control | T/C [8]: 99 % of control

O=[N+]([O-])c1ccc(S(=O)(=O)Oc2ccccc2)cc1
T/C (dose: 50.0 mg/kg/injection, schedule: Q01DX009 (ip), vehicle: saline sonified): 93 % of control | T/C (dose: 100.0 mg/kg/injection, schedule: Q01DX009 (ip), vehicle: saline sonified): 103 % of control | T/C [3]: 98 % of control | T/C (dose: 200.0 mg/kg/injection, schedule: Q01DX009 (ip), vehicle: saline sonified): 92 % of control | T/C [4]: 91 % of control

CCOC(=O)C/C(=N\NC(=O)c1ccccc1O)C(=O)OCC
T/C (dose: 50.0 mg/kg/injection, schedule: Q01DX009 (ip), vehicle: Klucel (hydroxypropylcellulose) (HPC)): 101 % of control | T/C [9]: 107 % of control | T/C [10]: 102 % of control | T/C [11]: 101 % of control

Nc1nc2c(c(=O)[nH]1)CN(C(CCc1ccc(N(CCCl)CCCl)cc1)C(=O)O)CN2 (centres undefined)
T/C (dose: 12.5 mg/kg/injection, schedule: Q01DX001 (ip), vehicle: carboxymethylcellulose (CMC)): 111 % of control | T/C (dose: 25.0 mg/kg/injection, schedule: Q01DX001 (ip), vehicle: carboxymethylcellulose (CMC)): 107 % of control | T/C [12]: 113 % of control | T/C (dose: 50.0 mg/kg/injection, schedule: Q01DX009 (ip), vehicle: carboxymethylcellulose (CMC)): 101 % of control | T/C [13]: 111 % of control | T/C (dose: 100.0 mg/kg/injection, schedule: Q01DX009 (ip), vehicle: carboxymethylcellulose (CMC)): 108 % of control

[NH-]C(CC(N)=O)C(=O)O.[NH-]C(CC(N)=O)C(=O)O.[Ni+2] (centres undefined)
T/C (dose: 6.25 mg/kg/injection, schedule: Q01DX009 (ip), vehicle: water): 92 % of control | T/C (dose: 12.5 mg/kg/injection, schedule: Q01DX009 (ip), vehicle: water): 91 % of control | T/C (dose: 25.0 mg/kg/injection, schedule: Q01DX009 (ip), vehicle: water): 88 % of control | T/C (dose: 25.0 mg/kg/injection, schedule: Q04DX002 (ip), vehicle: saline): 110 % of control | T/C (dose: 50.0 mg/kg/injection, schedule: Q04DX002 (ip), vehicle: saline): 100 % of control | T/C (dose: 50.0 mg/kg/injection, schedule: Q04DX003 (ip), vehicle: water): 112 % of control | T/C (dose: 100.0 mg/kg/injection, schedule: Q04DX002 (ip), vehicle: saline): 123 % of control | T/C (dose: 100.0 mg/kg/injection, schedule: Q04DX003 (ip), vehicle: water): 117 % of control

O=P1(N(CCCl)CCCl)NC(OO)CCO1 (centres undefined)
T/C (dose: 200.0 mg/kg/injection, schedule: Q01DX001 (ip), vehicle: DMSO): 270 % of control

C[N+](C)(C)c1ccc(NC(=O)c2ccc(C(=O)Nc3ccc([N+](C)(C)C)cc3)cc2)cc1
T/C (dose: 0.5 mg/kg/injection, schedule: Q01DX Z (ip), vehicle: saline): 93 % of control | T/C (dose: 1.0 mg/kg/injection, schedule: Q01DX Z (ip), vehicle: saline): 102 % of control | T/C (dose: 2.0 mg/kg/injection, schedule: Q01DX Z (ip), vehicle: saline): 97 % of control

COc1cc(C(=O)NO)cc(OC)c1OC
T/C [14]: 97 % of control and 104 % of control | T/C [15]: 97 % of control and 110 % of control | T/C [16]: 97 % of control and 100 % of control

O/N=C1/CCCC/C1=C/C=C/c1ccccc1
T/C [9]: 97 % of control | T/C [3]: 100 % of control | T/C [10]: 97 % of control | T/C [4]: 94 % of control | T/C [11]: 97 % of control | T/C [5]: 93 % of control

O=C(N/N=C\c1ccc(O)cc1)N/N=C/c1ccc(O)cc1
T/C [6]: 94 % of control | T/C [7]: 95 % of control | T/C [8]: 89 % of control

O=C(O)c1ccccc1SCc1cc(=O)[nH]c(=O)[nH]1
T/C [14]: 102 % of control | T/C [15]: 102 % of control | T/C [16]: 98 % of control

O=C1c2cc(-c3ccccc3)c(-c3ccccc3)cc2C(c2ccccc2)(c2ccccc2)C1(Cl)Cl
T/C [17]: 100 % of control | T/C [18]: 100 % of control | T/C [19]: 95 % of control

CC(C)=NNC(=O)c1ccc(Cl)cc1
T/C [18]: 95 % of control | T/C [19]: 106 % of control | T/C [20]: 116 % of control

CCc1ccc(C(C)(C)C)cc1
T/C [17]: 95 % of control | T/C [18]: 95 % of control | T/C [19]: 107 % of control

COC(=O)c1ccc(C(=O)NCCCc2c(C)nc(N)[nH]c2=O)cc1
T/C [6]: 97 % of control | T/C [7]: 92 % of control | T/C [8]: 92 % of control

Cc1ccc(C(=O)C=O)c(C)c1
T/C [9]: 96 % of control | T/C [10]: 105 % of control | T/C [11]: 109 % of control

CSc1nsc(SC)c1C#N
T/C [9]: 103 % of control | T/C [10]: 97 % of control | T/C [11]: 92 % of control

O=C1CCC(Cc2ccccc2)N1 (centres undefined)
T/C (dose: 100.0 mg/kg/injection, schedule: Q04DX002 (ip), vehicle: saline with Tween-80): 97 % of control | T/C (dose: 200.0 mg/kg/injection, schedule: Q04DX002 (ip), vehicle: saline with Tween-80): 102 % of control | T/C (dose: 400.0 mg/kg/injection, schedule: Q04DX002 (ip), vehicle: saline with Tween-80): 97 % of control

COc1ccc([N+](=O)[O-])cc1NC(=O)Nc1cccc(C(F)(F)F)c1
T/C (dose: 100.0 mg/kg/injection, schedule: Q04DX002 (ip), vehicle: Klucel (hydroxypropylcellulose) (HPC)): 96 % of control | T/C (dose: 200.0 mg/kg/injection, schedule: Q04DX002 (ip), vehicle: Klucel (hydroxypropylcellulose) (HPC)): 101 % of control | T/C (dose: 400.0 mg/kg/injection, schedule: Q04DX002 (ip), vehicle: Klucel (hydroxypropylcellulose) (HPC)): 96 % of control

O=S(=O)(Nc1ncccn1)c1ccc(N=NSC2=NC=NC3=NC=NC32)cc1 (centres undefined)
T/C (dose: 100.0 mg/kg/injection, schedule: Q01DX001 (ip), vehicle: other): 104 % of control | T/C (dose: 200.0 mg/kg/injection, schedule: Q01DX001 (ip), vehicle: other): 124 % of control | T/C (dose: 400.0 mg/kg/injection, schedule: Q01DX001 (ip), vehicle: other): 106 % of control

COc1ccc(OC)c(NC(=O)c2cccc(N(CCO)CCO)c2)c1
T/C [13]: 102 % of control | T/C [21]: 94 % of control | T/C [22]: 94 % of control

COC(=O)C1CC(C)(C)N(C)C1(C)C (centres undefined)
T/C [9]: 101 % of control | T/C [3]: 100 % of control | T/C [10]: 106 % of control and 92 % of control | T/C [4]: 103 % of control

CC(=O)N1CCC(CC(O)Cc2ccnc3ccccc23)CC1 (centres undefined)
T/C [1]: 97 % of control | T/C [2]: 97 % of control

CC1=Cc2ccc(C)cc2C(=O)C1=O
T/C (dose: 6.25 mg/kg/injection, schedule: Q04DX003 (ip), vehicle: saline with Tween-80): 94 % of control

O=c1c(N(CCO)CCO)cn(C(c2ccccc2)(c2ccccc2)c2ccccc2)c(=O)n1C(c1ccccc1)(c1ccccc1)c1ccccc1
T/C [12]: 104 % of control | T/C [13]: 96 % of control | T/C [21]: 100 % of control | T/C [22]: 96 % of control

Cc1ccc(C(=O)O)cc1S(=O)(=O)F
T/C [18]: 96 % of control | T/C [14]: 107 % of control | T/C [19]: 96 % of control | T/C [15]: 91 % of control | T/C [20]: 90 % of control | T/C [16]: 91 % of control
